# Several values for one entry are separate records, joined by “and”; a condition that tells them apart may be missing. Equal values may be shown once. Read-outs that look alike come from different tables or passages of the source.
# T1: human SGLT5 (Homo sapiens, UniProt A0PJK1)
# T1 construct: expressed in transfected cells
# T1 sequence (A0PJK1 1-596): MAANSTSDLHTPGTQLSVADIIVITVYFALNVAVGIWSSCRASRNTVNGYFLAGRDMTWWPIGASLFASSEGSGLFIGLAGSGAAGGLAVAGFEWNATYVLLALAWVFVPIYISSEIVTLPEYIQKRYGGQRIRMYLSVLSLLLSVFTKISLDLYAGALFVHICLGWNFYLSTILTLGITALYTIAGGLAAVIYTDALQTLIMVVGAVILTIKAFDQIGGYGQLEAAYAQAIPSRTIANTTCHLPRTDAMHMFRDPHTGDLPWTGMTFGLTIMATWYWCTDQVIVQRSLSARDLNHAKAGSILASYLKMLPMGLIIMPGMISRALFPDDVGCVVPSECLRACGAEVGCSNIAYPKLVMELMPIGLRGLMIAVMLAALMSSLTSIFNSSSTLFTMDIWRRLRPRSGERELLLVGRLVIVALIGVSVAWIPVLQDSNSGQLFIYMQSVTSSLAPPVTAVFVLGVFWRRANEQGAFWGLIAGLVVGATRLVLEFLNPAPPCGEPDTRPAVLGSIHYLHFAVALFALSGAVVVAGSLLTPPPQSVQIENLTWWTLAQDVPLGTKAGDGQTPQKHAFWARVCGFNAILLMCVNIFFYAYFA
# T2: human SGLT4 (Homo sapiens, UniProt Q2M3M2)
# T2 construct: expressed in transfected cells
# T2 sequence (Q2M3M2 1-681): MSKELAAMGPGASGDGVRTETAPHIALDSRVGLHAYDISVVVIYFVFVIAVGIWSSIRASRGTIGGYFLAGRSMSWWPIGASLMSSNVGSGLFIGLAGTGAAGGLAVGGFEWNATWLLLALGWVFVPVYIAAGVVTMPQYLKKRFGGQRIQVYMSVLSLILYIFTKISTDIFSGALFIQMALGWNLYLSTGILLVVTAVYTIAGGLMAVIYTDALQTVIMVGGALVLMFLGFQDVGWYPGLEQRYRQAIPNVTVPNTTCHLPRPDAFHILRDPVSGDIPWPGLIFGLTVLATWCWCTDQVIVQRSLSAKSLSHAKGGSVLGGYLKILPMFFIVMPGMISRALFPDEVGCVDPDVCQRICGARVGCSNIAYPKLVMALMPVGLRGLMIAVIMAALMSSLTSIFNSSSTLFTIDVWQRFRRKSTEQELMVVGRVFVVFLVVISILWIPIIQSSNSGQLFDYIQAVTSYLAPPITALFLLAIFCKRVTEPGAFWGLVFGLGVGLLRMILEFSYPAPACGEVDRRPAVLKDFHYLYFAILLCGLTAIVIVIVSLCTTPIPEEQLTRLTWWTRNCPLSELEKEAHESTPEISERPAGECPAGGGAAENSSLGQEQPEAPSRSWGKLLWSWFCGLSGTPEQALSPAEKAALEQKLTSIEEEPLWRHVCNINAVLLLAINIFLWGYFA
# Assays:
# Format in all cases: cell-based
# human SGLT5 = biological target: T1, human SGLT5; assay: Inhibition of 10 µM radiolabelled 1,5-AG transport in HEK293T cells overexpressing human SGLT5
# Method: (§1) For a typical transporter experiment we proceeded as follows. […] To minimize cell loss during the various washing steps in the radioactive uptake experiments, the wells where the cells were seeded were previously coated with poly- D-lysine, which improved their adhesion to the plastic surface of the wells. For this, each well of the 24-well plates was treated with 200 µl of a 0.01% poly-L-lysine solution for 10 min, washed 3 times with 1 ml of sterilized water and left to dry for 2 h. Only then could the 24-well plates be seeded with the appropriate cell lines and cultured overnight at 37 °C in 5% CO2.
# (§2) On day two, the radioactive uptake assay could be performed. The cell culture media was removed by aspiration and cells were incubated for 20 min at 37 °C and 5% CO2 with a basal medium (10 mM HEPES, pH 7.4, 1 mM CaCl2, 1 mM MgCl2, 2 mM KCl) containing 140 mM choline chloride to deplete intracellular […] ions. This was subsequently replaced with the uptake medium (basal medium + 140 mM NaCl, 25 μM cytochalasin B, 1 mg/ml BSA) containing either radioactive U-[^14C]-mannose (15,000 cpm/well) or 2-[^3H]-1,5-AG (30,000 cpm/well) and respectively, non-radioactive mannose or 1,5-AG, at the required concentration in the experiment. Importantly, when measuring the transport of mannose, the uptake media also contained 0.5 mM glucose. This resulted from the need to reduce the background transport of mannose in control HEK293T cells in order to optimize the transport assay for this sugar in our model cell lines. Consequently, after testing various inhibitors (Supplementary Fig. 1), 0.5 mM glucose + 25 µM cytochalasin B appeared as the best combination to decrease efficiently the endogenous transport of mannose in control cells without affecting the transport of mannose in model cell lines overexpressing SGLT4 and SGLT5. Therefore in the radioactive uptake assays for mannose, the uptake medium was: basal uptake medium + 140 mM NaCl, 25 μM cytochalasin B, 0.5 mM glucose and 1 mg/ml BSA to which we added U-[^12C + ^14C]-mannose as described above.
# (§3) Once the uptake medium was added to the cells, the plates were incubated at 37 °C in 5% CO2 during the required time. […] In each experiment, the transport activities were calculated after subtracting a “blank” value, corresponding to the radioactivity in the appropriate control cells (HEK293T cells that were stably or transiently transfected with one of the parent plasmids pEF6/MycHisA, pEF6HisB, pUB82 or pUB83 with no inserted cDNA) that were analyzed in parallel.
# (§4) The transport experiments to study the specificity of SGLT4 or SGLT5, were performed in the presence of 10 µM U-[^14C + ^12C]-mannose (for SGLT4) or 2-[^3H + ^1H]-1,5-AG (for SGLT5) and increasing concentrations of various sugars tested. The transport experiments to study the inhibition of empagliflozin, dapagliflozin or remogliflozin, on the transport of 1,5-AG by SGLT5 or its variants were performed in the presence of 10 µM 2-[^3H + ^1H]-1,5-AG and increasing concentrations of the various gliflozins tested.
# human SGLT4 = biological target: T2, human SGLT4; assay: Inhibition of 10 µM radiolabelled mannose transport in HEK293T cells overexpressing human SGLT4; details: for inhibition at 10000 µM: HEK-293T, read-out: hSGLT4 inhibition with 10 mM inhibitor
# Method: as §1, §2, §3, §4
# [1] = biological target: T3, SGLT5-TM (S70N–E71I–L75H) (Homo sapiens, UniProt A0PJK1, E71I/L75H/S70N); assay: Inhibition of 10 µM 1,5-AG transport by triple mutant SGLT5-TM (S70N-E71I-L75H); details: versus wild-type SGLT5, competition experiments, Supplementary Fig. 7
# T3 construct: pUB83-hSGLT5-iso2 as well as the various SGLT5 mutants obtained were used to transduce HEK293T cells; expressed in transfected cells; host or cells: HEK293T, lentiviral transduction (pUB83)
# Method: as §4
# SGLT5 mutants were created using the quick-change site directed mutagenesis method that enables effective mutagenesis without subcloning of the amplified PCR products. Complementary primer pairs carrying the desired replacements (Supplementary Table 3) were designed using an online tool (https://www.agilent.com/store/primerDesignProgram.jsp). The PCR protocol was carried out following the manufacturer instructions regarding the KOD HOT Start polymerase kit (TOYOBO™, Novagen). The amplified DNA was cleaned-up from the reactions constituents using the GeneJET PCR purification Kit (Thermo Scientific™) and the size of the DNA fragment were verified by DNA agarose-gel electrophoresis. After eliminating the parental DNA by digesting the purified DNA with the DpnI restriction enzyme, the DNA fragments containing the appropriate changes were transformed in E. coli NEB Turbo competent cells (C2984H). Once colonies were obtained, plasmid DNA was finally amplified, purified and sequenced to verify that the required changes had been introduced and eliminate any PCR errors. Next, pUB83-hSGLT5-iso2 as well as the various SGLT5 mutants obtained were used to transduce HEK293T cells using the exact same protocol as described above to create model cell lines overexpressing the different SGLT5 transporters.
# Supplementary Fig. 7: Substrate specificity of SGLT5 - impact of replacing specific and conserved substrate binding residues in human SGLT5 by the equivalent ones in […]
# When shown, the IC50 values are derived from inhibition curves showing the transport activity of 1,5-AG by the indicated SGLT5 mutants. Values show the concentration needed of the various sugars to inhibit by 50% the transport activity of 10 µM 2-[1H+3H]-1,5-AG. When the inhibition was too weak to derive IC50 values, the inhibition of the transport of 1,5-AG with the indicated concentration of the inhibitor-sugar is shown. Of note, despite having a lower […]
# µM). These apparently contradictory changes are not necessarily surprising: in the case of enzymes, there are multiple examples of mutations that, at the same time, increase the apparent affinity (decrease the Km) of an enzyme for its substrate while decreasing the Vmax.
# Measurement of transport activities and the description of the structures of the various inhibitory sugars used are as in Fig. 3C. Data corresponds to n = 3 in at least 2 independent […]
# (1 picture or pasted object on this page, not shown here)
# [2] = substrate: OC[C@H]1OC[C@H](O)[C@@H](O)[C@@H]1O; assay: Radioactive uptake assay (saturation kinetics) in HEK293T cells expressing mouse SGLT5; details: other: 30 min, Supplementary Fig. 4; pH 7.4; 37.0 °C
# Method: as §1
# On day two, the radioactive uptake assay could be performed. […]
# Once the uptake medium was added to the cells, the plates were incubated at 37 °C in 5% CO2 during the required time. […] In each experiment, the transport activities were calculated after subtracting a “blank” value, corresponding to the radioactivity in the appropriate control cells (HEK293T cells that were stably or transiently transfected with one of the parent plasmids pEF6/MycHisA, pEF6HisB, pUB82 or pUB83 with no inserted cDNA) that were analyzed in parallel. […]
# Supplementary Fig. 4: Transport activities for 1,5-anhydroglucitol and mannose of recombinant mouse SGLT4 and SGLT5 isoforms measured in HEK293T cells. […]
# [3] = substrate 10 μM 1,5-AG, unlabelled sugars, Fig. 3C, read-out: hSGLT5 IC50
# [4] = 10 mM inhibitor, substrate 10 μM mannose
# [5] = 10 µM 2-[1H+3H]-1,5-AG, Fig. 5C, read-out: IC50 for SGLT5-mediated 1,5-AG transport (gliflozins)
# T3 sequence (A0PJK1 whole entry S70N/E71I/L75H): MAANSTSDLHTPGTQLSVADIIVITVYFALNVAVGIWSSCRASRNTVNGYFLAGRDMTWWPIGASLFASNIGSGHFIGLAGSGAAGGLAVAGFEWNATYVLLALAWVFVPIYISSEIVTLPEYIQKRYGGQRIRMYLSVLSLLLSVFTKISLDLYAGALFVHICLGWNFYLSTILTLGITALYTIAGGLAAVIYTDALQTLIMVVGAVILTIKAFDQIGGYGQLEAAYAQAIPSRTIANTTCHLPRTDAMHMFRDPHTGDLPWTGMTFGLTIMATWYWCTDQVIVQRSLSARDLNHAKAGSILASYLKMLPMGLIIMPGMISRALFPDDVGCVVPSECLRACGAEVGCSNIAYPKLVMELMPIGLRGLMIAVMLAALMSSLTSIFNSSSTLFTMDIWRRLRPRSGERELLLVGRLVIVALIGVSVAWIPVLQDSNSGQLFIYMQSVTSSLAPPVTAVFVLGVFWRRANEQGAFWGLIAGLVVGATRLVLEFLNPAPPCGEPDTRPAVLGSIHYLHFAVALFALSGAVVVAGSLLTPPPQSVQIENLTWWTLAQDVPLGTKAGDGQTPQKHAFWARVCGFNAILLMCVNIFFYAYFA
molecule,measurement,setting,value
"O=C1CO[C@H](CO)[C@@H](O)[C@@H]1O [1,5-AF, 1,5-anhydrofructose]",IC50,human SGLT5; [3],179 µM
same,inhibition at 10000 µM,human SGLT4; [4],44%
"OC[C@H]1OC[C@@H](O)[C@@H](O)[C@@H]1O [1,5-AM, 1,5-anhydromannitol]","preference for 1,5-anhydromannitol over 1,5-AG, difference in Ki",human SGLT5; SGLT5,12 fold
same,"preference of 1,5-anhydromannitol over mannose, difference in Ki",human SGLT5; SGLT5,25 fold
same,IC50,human SGLT5; [3],13 µM
same,less affinity of SGLT4 compared to SGLT5,human SGLT4; from Fig. 3C,200 fold
same,IC50,"human SGLT4; substrate 10 μM mannose, Fig. 3C, read-out: hSGLT4 IC50",2300 µM
same,loss of affinity of SGLT5-TM,[1],250 fold
"O=C(CO)[C@@H](O)[C@H](O)[C@H](O)CO [Fructose, fructose]",IC50,human SGLT5,726 µM
same,inhibition at 10000 µM,human SGLT4; [4],33%
same,loss of affinity of SGLT5-TM,[1],tenfold
"OC[C@H]1OC(O)[C@H](O)[C@@H](O)[C@@H]1O (some centres unmarked) [Glucose, glucose]",IC50,human SGLT5; [3],3650 µM
same,inhibition at 10000 µM,human SGLT4; [4],20%
same,gain of affinity of SGLT5-TM,[1],30 fold
CCOc1ccc(Cc2cc([C@@H]3O[C@H](CO)[C@@H](O)[C@H](O)[C@H]3O)ccc2Cl)cc1 [dapagliflozin],IC50,human SGLT5; [5],0.4 µM
Cc1c(Cc2ccc(OC(C)C)cc2)c(O[C@@H]2O[C@H](CO)[C@@H](O)[C@H](O)[C@H]2O)nn1C(C)C [remogliflozin],IC50,human SGLT5; [5],0.26 µM and 0.27 µM
galactose,hSGLT5 inhibition with 10 mM inhibitor,"human SGLT5; 10 mM inhibitor, substrate 10 μM 1,5-AG",10%
same,hSGLT4 inhibition with 10 mM inhibitor,human SGLT4; [4],39%
same,gain of affinity of SGLT5-TM,[1],30 fold
"mouse SGLT5 (Mus musculus) (protein, expressed in transfected cells; host or cells: HEK293T) MAGNSTGDAHVPGSQLSVTDIIVISVYFALNVAVGIWSACRANKNTVSGYFLAGRDMAWWPIGASLFASSEGSGLFVGLAGSGAAGGLAVAGFEWNATYVLLALAWVFVPIYISSEIVTLPEYIQKRFGGQRIRTYLSVLSLMLSVFTKISIDLYAGALFVHICLGWNFYLSTILTLAITALYTIAGGLATVIYTDALQTIIMVVGAVILAVKAFNQIGGYEQLEAAYAQAIPSRTIPNTTCHLPRADAMHMFRDPSTGDLPWTGMTFGLTIMATWYWCTDQVIVQRSLSARNLNHAKAGSILASYLKMLPMGLMIMPGMISRVLFPDDVGCVVPSECLRACGAEIGCSNIAYPKLVMELMPIGLRGLMIAVMMAALLSSLTSIFNSSSTLFTMDIWRQLRPSAGERELLLVGRLVIVVLIGVSVAWIPVLQGSNSGQLFIYMQSVTSSLAPPVTAIFILGIFWRRANEQGAFWGLMAGLVVGALRLVLEFLYPEPPCGQIDTRPAPLRSLHYLHFAIALFLLTCAVMAAGSLLSPPPQQRQIENLTWWTLAPNWSLGTKTGDGQTPQKRAFWARVCNVNAIFLMCVNIFFYAYFA",Km,[2],500 µM
